In patent US10308926B2, “Stablized EZH2 peptides” (DANA-FARBER CANCER INSTITUTE, INC., priority 2013, dated 2019):
Each block holds one molecule with its values, some of them ahead of it. Bridges are numbered along the chain shown (N, C = ends). Where no end group is shown, it is not given here. [ ]: non-standard residue; d: D form. S5 = C=CCCC[C@](C)(N)C(=O)O; Nle = CCCC[C@H](N)C(=O)O

How the values were obtained:
Ace1, Adam8 and Fcer1a = assay: Real time qPCR of macrophage/monocyte lineage-specific markers in MLL-AF9 cells; assay type: cell-based, mouse; details: MLL-AF9, 8 days
CD133 = CD133 expression in MLL-AF9 cells; assay type: cell-based, mouse; details: MLL-AF9, 8 days of treatment
32D = assay: Viability assay on EZH2-independent cell line 32D; assay type: cell-based; details: EZH2-independent (non-leukemic)
Description: (§1) To compare the functional and mechanism-based cellular activities of SAH-EZH2 and GSK126, a small molecule inhibitor of EZH2 enzymatic activity (McCabe et al. Nature, 492: 108-112, 2012), we conducted viability assays on the EZH2-dependent cell line MLL-AF9 and the EZH2-independent (non-leukemic) cell line 32D. […] We next compared the effects of SAH-EZH2 and GSK126 on lineage specific surface marker expression in MLL-AF9 cells. […] Given the distinct mechanisms of action of SAH-EZH2 and GSK126, we explored whether co-administration of the two compounds would enhance the anti-leukemic effects. […] Thus, SAH-EZH2 manifests a unique mechanism of action by targeting EED, dissociating the EZH2/EED complex, and thereby reduces EZH2 protein levels. As a result, the H3K27Me3 mark is reduced over time and PRC2 transcriptional effects are inhibited, leading to anti-proliferative and induced-differentiation effects on EZH2-dependent leukemia cells.

MLL-AF9 = assay: Viability assay on EZH2-dependent cell line MLL-AF9; assay type: cell-based, mouse
Description: as §1

MLL-AF9 leukemia cells = assay: Apoptosis by Annexin V/7-AAD flow cytometry; assay type: cell-based, mouse; details: positive control, 2 μM, 48 h
Method: Cell Proliferation, Apoptosis, and Cell Cycle Analyses: To monitor the effect of SAH-EZH2 peptides on cell proliferation, MLL-AF9 cells were seeded in 48 well plates at densities of 2×10^5 cells per well in 150 μl of AF9 media and treated with SAH-EZH2 peptides (10 μM) twice daily. Cells were counted every other day using a hematocytometer. To evaluate apoptosis induction, the cells were stained with Annexin V5-PE and 7-AAD after 8 or 16 days of treatment with SAH-EZH2 peptides. Camptothecin (Biovision) was used as a positive control (2 μM, 48 h). Cells were analyzed using a BD FACScaliber and data was processed using Flowjo software. For cell cycle analysis, cells were stained with propidium iodide (BD Biosciences) after 4 or 8 days of treatment with SAH-EZH2 peptides. Cells were analyzed using a BD FACSCalibur and data processed using Modfit software.

EED [1] = target: T1, EED (Homo sapiens, UniProt O75530); assay: Fluorescence polarization binding of FITC-labeled SAH-EZH2 peptides to EED; details: FITC-peptide 25 nM; His-EED 25 nM-8 μM
T1 construct: His (C); made in house; host or cells: Escherichia coli BL21(DE3)
T1 sequence (O75530 whole entry, species assumed): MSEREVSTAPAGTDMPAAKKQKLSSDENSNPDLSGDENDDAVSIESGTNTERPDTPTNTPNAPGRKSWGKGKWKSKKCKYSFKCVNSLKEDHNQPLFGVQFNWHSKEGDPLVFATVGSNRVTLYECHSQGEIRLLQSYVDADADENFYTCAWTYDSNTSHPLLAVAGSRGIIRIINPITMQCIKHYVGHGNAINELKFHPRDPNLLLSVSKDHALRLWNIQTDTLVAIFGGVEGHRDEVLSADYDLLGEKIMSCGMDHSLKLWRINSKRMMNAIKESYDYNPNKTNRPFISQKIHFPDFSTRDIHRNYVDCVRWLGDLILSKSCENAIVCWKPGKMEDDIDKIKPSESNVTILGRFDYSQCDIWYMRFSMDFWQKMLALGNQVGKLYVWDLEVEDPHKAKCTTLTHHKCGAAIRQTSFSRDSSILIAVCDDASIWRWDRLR
Method: SAH-EZH2/EED Binding Analyses: For fluorescence polarization binding analysis, C-terminal His-tagged EED (His-EED) was expressed in Escherichia coli BL21(DE3) using 0.3 mM IPTG for 6 h at room temperature. Bacterial pellet lysate was loaded onto a Ni-NTA column (Novagen) for purification of His-EED. Fluorescinated stapled peptides (final concentration, 25 nM) were incubated with His-EED (serial dilution range, 25 nM-8 μM) at room temperature until equilibrium was reached (˜15 min) Binding activity was measured by fluorescence polarization on a Perkin-Elmer LS50B luminescence 5 spectrophotometer. KD values were determined by following equation,
(§2) [formula] y: Fluorescence polarization, X: Receptor concentration, L: Ligand concentration AF: Minimum value of y, AB: Maximum value of y For anti-FITC pull down-based binding assays, HA-EED was produced in Sf21 cells as described in Shen et al.^29,46. FITC-SAH-EZH2 peptides (final concentration, 50, 10, and 2 nM) were mixed with 2 μl, 0.5 μl and 0.2 μl of anti-FITC antibody (Abcam, 1 mg/ml) respectively, and incubated with 30 μl of protein G agarose (Roche) in 400 μl binding buffer (pH 8.0, 20 mM Tris-HCl, 150 mM NaCl, 0.3% NP40, 10% glycerol). After successive washes, HA-EED (final concentration of 40 nM each tube) was added and incubated for 3 h, followed by detection of HA-EED bound to FITC-SAH-EZH2 peptides by anti-HA (Santa Cruz Biotechnology) western analysis. Detection of FITC-SAH-EZH2 peptides was accomplished by fluorescence scan (GE Healthcare Life Sciences, Typhoon 9200).

HA-EED = target: T2, HA-EED (Homo sapiens, UniProt O75530); assay: Anti-FITC pull down of HA-EED by FITC-SAH-EZH2 peptides; assay type: binding; details: HA-EED 40 nM
T2 construct: made in house; host or cells: Sf21 insect cells
T2 sequence (O75530 whole entry): as the sequence (O75530 whole entry, species assumed) above
Method: as §2

[2] = test system: MDA-MB231 breast cancer cells; assay: Viability of MDA-MB231 breast cancer cells; assay type: cell-based; details: 8 days, once every other day
Description: (§3) To compare the functional and mechanism-based cellular activities of SAH-EZH2 and GSK126, a small molecule inhibitor of EZH2 enzymatic activity (McCabe et al. Nature, 492: 108-112, 2012), we conducted viability assays on the EZH2-dependent cell line MLL-AF9 and the EZH2-independent (non-leukemic) cell line 32D. […] We next compared the effects of SAH-EZH2 and GSK126 on lineage specific surface marker expression in MLL-AF9 cells. […] Given the distinct mechanisms of action of SAH-EZH2 and GSK126, we explored whether co-administration of the two compounds would enhance the anti-leukemic effects. […]
(§4) To test the anti-proliferative effect of SAH-EZH2(42-68)AC, breast (MDA-MB231) and prostate (DU145) cancer cell lines were treated with SAH-EZH2(42-68)AC at the indicated doses for 8 days and measured for viability by Cell Titer Glo®SAH-EZH2(42-68)AC was added to the culture medium once every other day. […] The cells were treated with SAH-EZH2(42-68)AC at the indicated doses for 6 days on an every other day schedule and then measured for viability using Cell Titer Glo®. […] To test the anti-proliferative effect on chronic myelogenous leukemia, SAH-EZH2(42-68)AC was added to K562 cells at 10 μM every other day and viability was measured at days 2, 4, 6, and 10 using Cell Titer Glo®. […]

TC71 = assay: Viability of Ewing Sarcoma cell line TC71, Cell Titer Glo; assay type: cell-based; details: 6 days, every other day
Method: (§5) To test the anti-proliferative effect of SAH-EZH2(42-68)AC, breast (MDA-MB231) and prostate (DU145) cancer cell lines were treated with SAH-EZH2(42-68)AC at the indicated doses for 8 days and measured for viability by Cell Titer Glo®SAH-EZH2(42-68)AC was added to the culture medium once every other day. […] We further tested the anti-proliferative effects of SAH-EZH2(42-68)AC on a Ewing Sarcoma cell line (TC71) and neuroblastoma cell line (Kelly). The cells were treated with SAH-EZH2(42-68)AC at the indicated doses for 6 days on an every other day schedule and then measured for viability using Cell Titer Glo®. […] To test the anti-proliferative effect on chronic myelogenous leukemia, SAH-EZH2(42-68)AC was added to K562 cells at 10 μM every other day and viability was measured at days 2, 4, 6, and 10 using Cell Titer Glo®. […] To assess the anti-proliferative effects of SAH-EZH2(42-68)AC on androgen-dependent and advanced androgen-independent prostate cancer, SAH-EZH2(42-68)AC was added to cell culture every other day at the indicated doses and viability measured using Cell Titer Glo®.

Kelly = assay: Viability of neuroblastoma cell line Kelly, Cell Titer Glo; assay type: cell-based; details: 6 days, every other day
Method: as §5

K562 cells = assay: Viability of K562 chronic myelogenous leukemia cells, Cell Titer Glo; assay type: cell-based; details: 10 μM every other day; days 2, 4, 6 and 10
Method: as §5

EED [3] = target: T1, EED; assay: Competitive fluorescence polarization: displacement of FITC-labeled EZH2(42-68) peptide from EED; assay type: binding; details: N-terminal acetylated peptides; EED 200 nM, FITC-peptide 20 nM, 30 min
Method: The EED binding affinities of SAH-EZH2 and SAH-EZH2(42-68)AC were assessed by their capacities to displace FITC-labeled EZH2(42-68) peptide from EED. Serially diluted acetyl-SAH-EZH2 and the doubly stapled acetyl-SAH-EZH2(42-68)AC (dose range from 2.5 nM to 10 μIM) were incubated with purified EED (200 nM) and FITC-labeled EZH2(42-68) peptide (20 nM) for 30 min, followed by measurement of fluorescence polarization. […] The non-binding EZH2(47-64) construct was used as a negative control.

Abl = assay: Viability of androgen independent prostate cancer cells Abl, Cell Titer Glo; assay type: cell-based; details: every other day, read-out: IC50 for growth
Method: as §5

LNCaP cells = assay: Viability of androgen-dependent LNCaP cells, Cell Titer Glo; assay type: cell-based; details: every other day
Method: as §5

[4] = test system: DU145 prostate cancer cells; assay: Viability of DU145 prostate cancer cells; assay type: cell-based; details: 8 days, once every other day
Description: as §3, §4

22Rv1 = assay: Viability of androgen independent prostate cancer cells 22Rv1, Cell Titer Glo; assay type: cell-based; details: 22Rv1, every other day; read-out: IC50 for growth
Method: as §5

Molecule: CC[C@H](C)n1cc(C)c2c(C(=O)NCc3c(C)cc(C)[nH]c3=O)cc(-c3ccc(N4CCNCC4)nc3)cc21 [GSK126]
Expression of macrophage lineage-specific markers (Ace1, Adam8 and Fcer1a): increase expression of Fcerla | Expression of CD133 (CD133): decreased the expression | Viability of 32D cells (32D): decreased the viability | Viability of MLL-AF9 cells (MLL-AF9): decreased the viability

Molecule: CC[C@@]1(O)C(=O)OCc2c1cc1n(c2=O)Cc2cc3ccccc3nc2-1 [camptothecin]
Apoptotic effect (MLL-AF9 leukemia cells): robust apoptotic effect

EED-binding activity by fluorescence polarization (EED [1]): no appreciable engagement | Engagement of HA-EED by anti-FITC pull down (HA-EED): no appreciable engagement
Molecule: FSSNRXKILXRTEILNQEWKQRR (SEQ ID NO: 19) (FSSNR[S5]KIL[S5]RTEILNQEWKQRR; staple 6-10) [SAH-EZH2A(42-64)]

Displacement of FITC-labeled EZH2(42-68) peptide from EED (EED [3]): two times more efficiently than SAH-EZH2 | IC50 (Abl): < 1000 nM | IC50 (22Rv1): < 1000 nM
Molecule: FSSNRXKILXRTXILNXEWKQRRIQPV (SEQ ID NO:56) (FSSNR[S5]KIL[S5]RT[S5]ILN[S5]EWKQRRIQPV; staple 6-10, 13-17) [SAH-EZH2(42-68)AC]
Anti-proliferative effect on MDA-MB231 [2]: enhanced dose-dependent anti-proliferative effects compared to SAH-EZH2 treatment | Anti-proliferative effect on TC71 (TC71): noticeable anti-proliferative effects | Anti-proliferative effect on Kelly (Kelly): noticeable anti-proliferative effects | Proliferation of K562 cells (K562 cells): decreased proliferation of K562 cells in a dose-responsive manner | Anti-proliferative activity on LNCaP (LNCaP cells): anti-proliferative activity in each case | Anti-proliferative effect on DU145 [4]: enhanced dose-dependent anti-proliferative effects compared to SAH-EZH2 treatment

Displacement of FITC-labeled EZH2(42-68) peptide from EED (EED [3]): non-binding
Molecule: QKILERTEILNQEWKQRR (SEQ ID NO: 11) [EZH2(47-64), reference compound]

Molecule: SAH-EZH2B(40-68): stapled EZH2(40-68) peptide with the B-positioned staple; probably position 'C' (54-58) of FIG. 2, SEQ ID NO: 5 (S[Nle]FSSNRQKILERT[S5]ILN[S5]EWKQRRIQPV; staple 15-19)
EED-binding activity by fluorescence polarization (EED [1]): most potent dose-responsive EED-binding activities

EED-binding activity by fluorescence polarization (EED [1]): no appreciable engagement | Engagement of HA-EED by anti-FITC pull down (HA-EED): no appreciable engagement
Molecule: SAH-EZH2B(42-64): foreshortened stapled EZH2(42-64) peptide with the B-positioned staple; probably position 'C' of FIG. 2, SEQ ID NO: 20 (FSSNRQKILERT[S5]ILN[S5]EWKQRR; staple 13-17)

Molecule: SBFSSNRXKILXRTEILNQEWKQRRIQPV (SEQ ID NO: 3) (S[Nle]FSSNR[S5]KIL[S5]RTEILNQEWKQRRIQPV; staple 8-12) [SAH-EZH2A(40-68)]
EED-binding activity by fluorescence polarization (EED [1]): most potent dose-responsive EED-binding activities
